From article PMC5063506, “A Novel Class of Small Molecule Agonists with Preference for Human over Mouse TLR4 Activation” (PLoS ONE, 2016)

Key:
human TLR4/MD2 = molecular target: T1, human TLR4/MD2 (Homo sapiens, UniProt O00206+Q9Y6Y9); experiment: hTLR4/MD2-HEK293 transfectant SEAP (QUANTI-Blue) dose response, AUC; assay type: cell-based; conditions: 1 μg/ml to 4 ng/ml, 24 h, SEAP OD 650 nm vs log concentration
T1 construct: host or cells: HEK293
Method: Cells were seeded in tissue culture treated clear flat bottom polystyrene 96 well plates (Costar, 3598) at 1e4 cells/well. Concentration-response curves were generated by addition of test compounds and incubation for 20 h at 37°C in an atmosphere of 5% CO2. LPS (E. coli 0111:B4, Ultra-pure, Invivogen) or PHAD (Avanti Polar Lipids) was used as a positive control. The SEAP released was quantified using p nitrophenyl phosphate as a substrate, and the absorbance at 405 nm was measured at 30 second intervals over several minutes using a microplate reader. Some data are recorded as the pEC50, the negative log of the EC50 value. Other data generated from these reporter cell lines were converted to AUC (area under the curve) values by interpolation of fitted cubic spline curve between OD value and log concentration levels. The calculation is performed using MESS package in statistical software R (www.r-project.org/).
Fig 4 Ugi compounds preferentially activate TLR4-HEK transfectants expressing human MD2. A-B) HEK293 cells transfected with human TLR4/MD2 or mouse TLR4/MD2 (InVivogen) were stimulated with TLR4 agonists including MPL, PHAD, and Ugi compounds at 1 μg/ml to 4 ng/ml and with LPS at 25 ng/ml to 64 pg/ml for 24 h. SNs were analyzed for SEAP content by the QUANTI-Blue assay (InVivogen) and analysis at 650 nm by spectrophotometer. AUC (area under the curve) values were calculated as in Methods. No AUC value was calculated for LPS since it was utilized with a different dose range. C) HEK transfectants with cis- or trans-species expression of TLR4, MD2, and CD14 were stimulated with Ugi compounds in a dose response range of 9 μM to 1 nM or with LPS (boxes) at 75 ng/ml to 5 pg/ml for 48 h. Data was obtained as Vmax calculated over the initial linear portion of the kinetic absorbance measurements. The AUC (area under the curve) value for the dose response curve of Vmax vs log10 (molar units) was calculated for each compound using Trapezoidal rule. TEXT PRINTED IN THE PICTURE: (A) MPL: hTLR4-HEK AUC: 0.55 | (A) AZ617: hTLR4-HEK AUC: 5.90 | (A) AZ618: hTLR4-HEK AUC: 6.56 | (A) AZ839: hTLR4-HEK AUC: 6.00 | (A) AZ161: hTLR4-HEK AUC: 5.54 | (A) AZ902: hTLR4-HEK AUC: 7.04 | (A) GLA: hTLR4-HEK AUC: 3.75 | (B) MPL: mTLR4-HEK AUC: 13.27 | (B) AZ617: mTLR4-HEK AUC: 0.89 | (B) AZ618: mTLR4-HEK AUC: 1.03 | (B) AZ839: mTLR4-HEK AUC: 0.93 | (B) AZ161: mTLR4-HEK AUC: 0.99 | (B) AZ902: mTLR4-HEK AUC: 1.55 | (B) GLA: mTLR4-HEK AUC: 14.24

GP PBMCs = experiment: Cytokine gene expression in guinea pig PBMCs (QuantiGene Plex); assay type: cell-based; conditions: 1 and 0.2 μg/ml, 24 h, ranking among Ugi compounds
Method: Splenocytes were isolated from naïve BALB/c mice by dissociating spleens with a GentleMACS (Miltenyi) instrument, then filtration through […] screens. For other species, blood was obtained through venipuncture or cardiac puncture into heparinized tubes, then diluted 1:1 with PBS or HBSS and layered onto Ficoll-Histopaque (GE Healthcare) for blood from healthy human volunteers and cynomolgus macaques, Lympholyte-Mammal (Cedarlane Labs) for New Zealand white rabbits, Sprague-Dawley rats, Hartley guinea pigs, cotton rats, and ferrets, followed by standard density centrifugation techniques. PBMCs layers were recovered and cultured in RPMI-1640 + human AB serum (Life Technologies) + Pen Strep + L-Glutamine (human cells) or RPMI-1640 + 10% FBS (Hyclone) + Pen/Strep + L-Glutamine + 0.1% Beta-Mercapto-ethanol (Sigma) (mouse, cyno, rat, cotton rat, guinea pig, rabbit, ferret cells). Purchase of peripheral blood from cynomolgus macaques was from Valley Biosystems (West Sacramento, CA) and was performed in accordance with Standard Operating Procedures and with the approval of the Valley Biosystems Institutional Animal Care and Use Committee (IACUC). […]
PBMCs (human, cynomolgus macaque, guinea pig, ferret, rabbit, rat, and cotton rat) or splenocytes (mouse) were seeded onto 96-well flat bottom plates at 5 x 10^5 cells/well and stimulated with TLR4 agonists at 1 and 0.2 μg/ml for 24 h at 37°C. […] For human, cyno, mouse, and rat, cell-free SNs were analyzed via human, NHP, mouse, and rat MILLIPLEX kits. For GP, ferret, rabbit, and CR, cells were lysed by Millipore lysing buffer and snap frozen at -70 C until ready for analysis by Affymetrix QuantiGene 2.0 Plex kits. […] Signal was detected using a Bioplex 200 instrument (BioRad). […]
Fig 7 Activation of cytokine gene expression by Ugi compounds in GP PBMCs. […] SNs were analyzed via GP Affymetrix QuantiGene Plex assay. Data are expressed as the means of 3 GPs at the 1 μg/ml dose of TLR4 agonist and are representative of 2 studies. […]

T1 sequence (O00206 24-839): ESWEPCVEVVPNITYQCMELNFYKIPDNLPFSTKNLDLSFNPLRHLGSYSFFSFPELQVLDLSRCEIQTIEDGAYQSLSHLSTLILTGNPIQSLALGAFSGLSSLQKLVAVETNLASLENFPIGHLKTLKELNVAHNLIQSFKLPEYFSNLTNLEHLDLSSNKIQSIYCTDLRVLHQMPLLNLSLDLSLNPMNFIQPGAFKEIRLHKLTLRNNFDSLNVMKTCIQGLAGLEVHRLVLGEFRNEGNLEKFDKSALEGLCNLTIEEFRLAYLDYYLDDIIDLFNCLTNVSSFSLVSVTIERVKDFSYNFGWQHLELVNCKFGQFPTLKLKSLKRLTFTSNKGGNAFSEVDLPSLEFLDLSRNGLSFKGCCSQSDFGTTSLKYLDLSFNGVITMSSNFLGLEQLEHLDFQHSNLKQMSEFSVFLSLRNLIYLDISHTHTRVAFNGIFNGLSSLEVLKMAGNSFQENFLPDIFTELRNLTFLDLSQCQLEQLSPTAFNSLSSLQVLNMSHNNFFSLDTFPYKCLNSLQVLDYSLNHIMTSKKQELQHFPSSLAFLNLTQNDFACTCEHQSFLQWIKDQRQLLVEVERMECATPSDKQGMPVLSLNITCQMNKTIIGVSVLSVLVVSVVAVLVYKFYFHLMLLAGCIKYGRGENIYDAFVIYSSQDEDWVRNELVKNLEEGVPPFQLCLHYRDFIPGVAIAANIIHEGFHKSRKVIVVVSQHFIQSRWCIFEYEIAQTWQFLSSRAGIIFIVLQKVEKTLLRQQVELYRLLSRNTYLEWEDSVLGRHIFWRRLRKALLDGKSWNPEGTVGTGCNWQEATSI
T1 sequence (Q9Y6Y9 19-160): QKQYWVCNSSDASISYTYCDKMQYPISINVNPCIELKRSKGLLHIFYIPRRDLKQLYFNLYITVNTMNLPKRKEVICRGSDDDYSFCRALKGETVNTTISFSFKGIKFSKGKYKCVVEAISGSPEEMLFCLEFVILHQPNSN

Row | hTLR4-HEK AUC (human TLR4/MD2) | Structure (SMILES) | activity in GP PBMCs (cytokine mRNA) (GP PBMCs)
1 | 6.56 | Cc1cc(C)cc(N(C(=O)c2cc(-c3ccccc3)n(-c3ccccc3)n2)C(C(=O)NC2CCCC2)c2ccc(CC(=O)O)cc2)c1 (stereo not shown) [AZ618, 2-(4-(2-(cyclopentylamino)-1-(N-(3,5-dimethylphenyl)-1,5-diphenyl-1H-pyrazole-3-carboxamido)-2-oxoethyl)phenyl)acetic acid] | highest activity
2 | 5.90 | O=C(O)Cc1ccc(C(C(=O)NC2CCCC2)N(C(=O)c2cc(-c3ccccc3)n(-c3ccccc3)n2)c2ccc3c(c2)CCC3)cc1 (stereo not shown) [AZ617] | highest activity
3 | 5.54 | Cc1ccc(N(C(=O)c2cc(-c3ccccc3)n(-c3ccccc3)n2)C(C(=O)NC2CCCC2)c2ccc(CC(=O)O)cc2)cc1Cl (stereo not shown) [AZ161] | –
4 | 7.04 | CC(C)(C)c1ccc(N(C(=O)c2cc(-c3ccccc3)n(-c3ccccc3)n2)C(C(=O)NC2CCCC2)c2ccc(CC(=O)O)cc2)cc1 (stereo not shown) [AZ902] | lowest activity
